# Results published in the supplement of paper PMC11208160.
# Test: recombinant barcode read abundance after kanamycin selection (control-corrected) (log10(CPM+1)); higher = more efficient recombination; sequences stand for … in AGTGCAGAGAAAATCGGCCAGTTTTCTCTGCCTGCAGTCCGCATGCCGT…AGATTTATGCAGCGGACTGCCTTTCTCCCAAAGTGATAAACCGGACAGTATCATGGACCGGTTTTCCCGGTAATCCGTATTTGCAAGGTTGGTTTCACT; site = the 11-nt target
# Summary of the method: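 A vector carrying a T7-inducible recombinase and the last 73 bp of the bridge RNA received, by Gibson cloning, oligos encoding a promoter, target, barcode and the first 104 bridge RNA bases under J23119. The pooled constructs entered E. coli together with a donor plasmid by electroporation. Selection used chloramphenicol/ampicillin/kanamycin with 0.1 mM IPTG, with chloramphenicol/ampicillin LB agar as the control, each in two replicates. Recombination efficiency is the averaged, control-corrected counts-per-million of barcodes at recombinant junctions, reported as log10(CPM+1).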
# 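Further: IS621 recombinase and bridge RNA in Escherichia coli cells.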
row,Sequence,recombinant barcode read abundance (log10)
1,AGGTCTACTTGGGTTCTAACCTGTTGCGG (site AGGTCTACTCC),1.63
2,AGGTCTACTTGGGTTCTAACCTGTTGCGG (site GAAAACTCTAG),0.0493
3,AGGTGTCCTTGGGTTCTAACCTGTTGCGA (site AGGTGTCCTTC),2.36
4,AGGTGTCCTTGGGTTCTAACCTGTTGCGA (site TATATATCTAT),0.247
5,AGGTTCCCTTGGGTTCTAACCTGTTGCGG (site AGGTTCCCTCC),1.96
6,AGGTTCCCTTGGGTTCTAACCTGTTGCGG (site CTAGGAACTTA),0.11
7,AGGTTCCCTTGGGTTCTAACCTGTTGCTG (site AGGTTCCCTAA),0.154
8,AGGTTCCCTTGGGTTCTAACCTGTTGCTG (site AGGTTCCCTCA),2.46
9,AGGTTCCCTTGGGTTCTAACCTGTTGCTG (site AGGTTCCCTGA),0.142
10,AGGTTCCCTTGGGTTCTAACCTGTTGCTG (site AGGTTCCCTTA),0.358
11,AGTAAGACTTGGGTTCTAACCTGTTGCGT (site AGTAAGACTAA),0.062
12,AGTAAGACTTGGGTTCTAACCTGTTGCGT (site AGTAAGACTAC),2.25
13,AGTAAGACTTGGGTTCTAACCTGTTGCGT (site AGTAAGACTAG),0.482
14,AGTAAGACTTGGGTTCTAACCTGTTGCGT (site AGTAAGACTAT),1.22
15,AGTAAGACTTGGGTTCTAACCTGTTGCTT (site AGTAAGACTAA),0.281
16,AGTAAGACTTGGGTTCTAACCTGTTGCTT (site AGTAAGACTAC),0.354
17,AGTAAGACTTGGGTTCTAACCTGTTGCTT (site AGTAAGACTAG),0.202
18,AGTAAGACTTGGGTTCTAACCTGTTGCTT (site AGTAAGACTAT),0.15
19,AGTACTACTTGGGTTCTAACCTGTTGCCT (site AATACTACTAG),0.0591
20,AGTACTACTTGGGTTCTAACCTGTTGCCT (site ACTACTACTAG),0.0106
21,AGTACTACTTGGGTTCTAACCTGTTGCCT (site AGTACTACTAG),0.25
22,AGTACTACTTGGGTTCTAACCTGTTGCCT (site ATTACTACTAG),0.162

row,Sequence,recombinant barcode read abundance (log10)
1,AGTAGGCCTTGGGTTCTAACCTGTTGCGG (site AGTAGGCCTCC),1.4
2,AGTAGGCCTTGGGTTCTAACCTGTTGCGG (site GGTAGGACTCC),0.303
3,AGTAGGGCTTGGGTTCTAACCTGTTGCAG (site AGTAGGGCTCT),2.65
4,AGTAGGGCTTGGGTTCTAACCTGTTGCAG (site CGTAGGGCTCG),0.0704
5,AGTATCGCTTGGGTTCTAACCTGTTGCGG (site AGTATCGCTCC),1.11
6,AGTATCGCTTGGGTTCTAACCTGTTGCGG (site AGTCTCGCTCC),0.11
7,AGTATCGCTTGGGTTCTAACCTGTTGCGG (site AGTGTCGCTCC),0.0704
8,AGTATCGCTTGGGTTCTAACCTGTTGCGG (site AGTTTCGCTCC),0.246
9,AGTATGTCTTGGGTTCTAACCTGTTGCCT (site AGTATGTCTAG),1.13
10,AGTATGTCTTGGGTTCTAACCTGTTGCCT (site CGTATGTCTAG),0.184
11,AGTATGTCTTGGGTTCTAACCTGTTGCCT (site GGTATGTCTAG),0.0305
12,AGTATGTCTTGGGTTCTAACCTGTTGCCT (site TGTATGTCTAG),0.116
13,AGTCACACTTGGGTTCTAACCTGTTGCAG (site AGTCACACTCT),1.44
14,AGTCACACTTGGGTTCTAACCTGTTGCAG (site TTGTGAGCTGC),0.153
15,AGTCACACTTGGGTTCTAACCTGTTGCTG (site AGTCACACTCA),1.18
16,AGTCACACTTGGGTTCTAACCTGTTGCTG (site AGTCACACTTA),0
17,AGTCCACCTTGGGTTCTAACCTGTTGCCT (site AGTCCACCTAG),1.53
18,AGTCCACCTTGGGTTCTAACCTGTTGCCT (site CGTCCACCTAG),0.166
19,AGTCCACCTTGGGTTCTAACCTGTTGCCT (site GGTCCACCTAG),0.132
20,AGTCCACCTTGGGTTCTAACCTGTTGCCT (site TGTCCACCTAG),0.49
21,AGTCCGTCTTGGGTTCTAACCTGTTGCAT (site AGTCCGTCTAT),1.29
22,AGTCCGTCTTGGGTTCTAACCTGTTGCAT (site CTAATAGCTTG),0.0391

row,Sequence,recombinant barcode read abundance (log10)
1,AGTCGGACTTGGGTTCTAACCTGTTGCTT (site AGTCATACTAA),0.446
2,AGTCGGACTTGGGTTCTAACCTGTTGCTT (site AGTCGGACTAA),0.517
3,AGTCGTACTTGGGTTCTAACCTGTTGCCT (site AGACGTACTAG),0.166
4,AGTCGTACTTGGGTTCTAACCTGTTGCCT (site AGCCGTACTAG),0.213
5,AGTCGTACTTGGGTTCTAACCTGTTGCCT (site AGGCGTACTAG),0.0589
6,AGTCGTACTTGGGTTCTAACCTGTTGCCT (site AGTCGTACTAG),0.536
7,AGTCTAGCTTGGGTTCTAACCTGTTGCCA (site AGTCTAGCTAG),0.176
8,AGTCTAGCTTGGGTTCTAACCTGTTGCCA (site AGTCTAGCTCG),0.217
9,AGTCTAGCTTGGGTTCTAACCTGTTGCCA (site AGTCTAGCTGG),0.548
10,AGTCTAGCTTGGGTTCTAACCTGTTGCCA (site AGTCTAGCTTG),0.493
11,AGTCTAGCTTGGGTTCTAACCTGTTGCGG (site AGGATAGCTCC),0.479
12,AGTCTAGCTTGGGTTCTAACCTGTTGCGG (site AGTCTAGCTCC),1.33
13,AGTCTGCCTTGGGTTCTAACCTGTTGCCT (site AGTCTGCCTAG),0.427
14,AGTCTGCCTTGGGTTCTAACCTGTTGCCT (site CGTCTGCCTAG),0.0547
15,AGTCTGCCTTGGGTTCTAACCTGTTGCCT (site GGTCTGCCTAG),0.0978
16,AGTCTGCCTTGGGTTCTAACCTGTTGCCT (site TGTCTGCCTAG),0.0318
17,AGTGAACCTTGGGTTCTAACCTGTTGCCT (site AGCTAACCTAG),0.013
18,AGTGAACCTTGGGTTCTAACCTGTTGCCT (site AGTGAACCTAG),1.84
19,AGTGAATCTTGGGTTCTAACCTGTTGCCT (site AGAGAATCTAG),0.13
20,AGTGAATCTTGGGTTCTAACCTGTTGCCT (site AGCGAATCTAG),0.249
21,AGTGAATCTTGGGTTCTAACCTGTTGCCT (site AGGGAATCTAG),0.286
22,AGTGAATCTTGGGTTCTAACCTGTTGCCT (site AGTGAATCTAG),0.541

row,Sequence,recombinant barcode read abundance (log10)
1,AGTGCGTCTTGGGTTCTAACCTGTTGCCT (site AGTGCGTCTAG),1.52
2,AGTGCGTCTTGGGTTCTAACCTGTTGCCT (site CGTGCGTCTAG),0.043
3,AGTGCGTCTTGGGTTCTAACCTGTTGCCT (site GGTGCGTCTAG),0.241
4,AGTGCGTCTTGGGTTCTAACCTGTTGCCT (site TGTGCGTCTAG),0.0164
5,AGTGCTCCTTGGGTTCTAACCTGTTGCGG (site AGAGCTCCTCC),0.196
6,AGTGCTCCTTGGGTTCTAACCTGTTGCGG (site AGTGCTCCTCC),0.18
7,AGTGTCACTTGGGTTCTAACCTGTTGCGG (site AGTGTCACTCC),2.77
8,AGTGTCACTTGGGTTCTAACCTGTTGCGG (site GTGCAACCTAG),0.0283
9,AGTTAATCTTGGGTTCTAACCTGTTGCTT (site AGCTACTCTAA),0.0347
10,AGTTAATCTTGGGTTCTAACCTGTTGCTT (site AGTTAATCTAA),0.0371
11,AGTTAGTCTTGGGTTCTAACCTGTTGCGG (site AATTAGTCTCC),0.00949
12,AGTTAGTCTTGGGTTCTAACCTGTTGCGG (site AGTTAGTCTCC),1.43
13,AGTTGCTCTTGGGTTCTAACCTGTTGCCT (site AGTTGCTCTAG),0.468
14,AGTTGCTCTTGGGTTCTAACCTGTTGCCT (site GGTTGCACTAG),0.268
15,AGTTGTCCTTGGGTTCTAACCTGTTGCGT (site AGTTGTCCTAA),0.121
16,AGTTGTCCTTGGGTTCTAACCTGTTGCGT (site AGTTGTCCTAC),1.21
17,AGTTGTCCTTGGGTTCTAACCTGTTGCGT (site AGTTGTCCTAG),0.108
18,AGTTGTCCTTGGGTTCTAACCTGTTGCGT (site AGTTGTCCTAT),0.251
19,AGTTTCACTTGGGTTCTAACCTGTTGCTA (site AGTTTCACTTA),0.111
20,AGTTTCACTTGGGTTCTAACCTGTTGCTA (site GCCAAGGCTAG),1.31
